# Assay results: patent US20240197867A1, “NEURAL CONTROL OF ADAPTIVE IMMUNITY” (The Feinstein Institutes for Medical Research, priority 2021, published 2024)
# Molecular target: T1, Gi-DREADD (hM4Di) on TRPV1+ neurons (Homo sapiens, UniProt P08173, A203G/Y113C)
# T1 construct: expressed in transfected cells; host or cells: TRPV1+ neurons of TRPV1Cre/Gi-DREADD transgenic mice (TRPV1Cre x R26-LSL-Gi-DREADD), in vivo
# T1 sequence (P08173 1-479 Y113C/A203G): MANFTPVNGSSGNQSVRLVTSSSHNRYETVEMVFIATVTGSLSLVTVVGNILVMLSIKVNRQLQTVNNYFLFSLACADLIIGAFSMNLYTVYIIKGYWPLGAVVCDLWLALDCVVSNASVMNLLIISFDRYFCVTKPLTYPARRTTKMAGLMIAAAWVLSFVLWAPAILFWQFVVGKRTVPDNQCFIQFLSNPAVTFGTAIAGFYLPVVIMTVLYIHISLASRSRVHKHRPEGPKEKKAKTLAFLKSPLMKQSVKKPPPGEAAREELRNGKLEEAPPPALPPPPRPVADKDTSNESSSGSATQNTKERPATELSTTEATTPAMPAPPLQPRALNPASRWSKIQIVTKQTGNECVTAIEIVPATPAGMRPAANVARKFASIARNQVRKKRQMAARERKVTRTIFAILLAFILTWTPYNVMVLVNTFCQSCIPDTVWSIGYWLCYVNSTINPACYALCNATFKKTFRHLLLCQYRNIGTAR
# Experiment: Chemogenetic silencing of TRPV1+ neurons before intratracheal NP27-OVA immunization; NP-specific antibody titer by ELISA
# Format: in vivo
# Conditions: TRPV1-Gi-DREADD mice; CNO intraperitoneally 30 minutes prior to intratracheal immunization with NP27-OVA; D14 post-immunization; n=11; p=0.0017 vs vehicle
# Description: FIG. 1. Silencing of sensory nerves at the time of primary immunization impacts antigen specific antibody responses. TRPV1^Cre/Gi-DREADD mice were administered with vehicle (DMSO) or CNO 30 min prior to immunization. Titer of NP-specific antibodies were monitored using ELISA.
# Using an intra-tracheal instillation technique, specific antigens were delivered in the lung. Tracheal instillations are preferred methodology, over inhalation protocols that may primarily target the upper respiratory tract. This allows for making subsequent physiological measurements on test animals, or reinstallation using the same animal. Also, the dose of the inoculum introduced into the lungs can be carefully determined and more accurately delivered to ensure animal recovery. […] TRPV1+ neurons were selectively silenced at the time of immunization using a chemogenetic mouse model. The Gi-DREADD, also known as human muscarinic receptor 4 (hM4Di), is a mutated muscarinic acetylcholine receptor that, when activated by its ligand, CNO, initiates the inhibitory G-protein signaling cascade that inhibits neuronal signaling and/or excitability. TRPV1Cre/Gi-DREADD mice that express Gi-DREADD on TRPV1+ neurons were generated by crossing TRPV1Cre mice with R26-LSLGi-DREADD mice controls. […] Antibody levels were assessed over time. […]
compound,measurement,value
"C[N+]1([O-])CCN(C2=Nc3cc(Cl)ccc3Nc3ccccc32)CC1 [CNO, clozapine-N-oxide]","Anti-NP IgG1, Mean±SEM","42,525+14,641 U/mL"
